One test addresses T1, SMARCA4 (Homo sapiens, UniProt P51532).
T1 construct: SMARCA4-HiBiT knock-in Hela monoclonal cell (CS3023226) were purchased from Promega; host or cells: HeLa (CRISPR HiBiT knock-in monoclonal line, heterozygous)
The test can be described thus: SMARCA4 HiBiT degradation assay in HeLa cells. It is filed as cell-based. The settings on record: 18 hours; for Dmax: HeLa. As to the method:
(§1) Example A. SMARCA2 HiBiT and SMARCA4 HiBiT Degradation Assay
(§2) Preparation of SMARCA2/4-HiBiT Knock-In Cells
(§3) HiBiT peptide knock-in of SMARCA2 in LgBiT expressing HEK293T cells was performed by CRISPR-mediated tagging system as described Promega. The homozygous HiBiT knock-in on c-terminus SMARCA2 was confirmed by sanger sequence. SMARCA2-HiBiT knock-in Hela monoclonal cell (CS302366) and SMARCA4-HiBiT knock-in Hela monoclonal cell (CS3023226) were purchased from Promega. The heterozygous HiBiT-knock-in was confirmed by sanger sequence in both SMARCA2-HiBiT and SMARCA4-HiBiT monoclonal cells.
(§4) SMARCA2 HiBiT and SMARCA4 HiBiT Degradation Assay in HeLa Cells
(§5) Compounds were dissolved in DMSO to make 10 mM stock and 3-fold series dilutions were further conducted keeping the highest concentration 10 μM. NCIH1693 and NCIH520 cells were maintained in PRMI 1640 medium (Corning Cellgro, Catalog #:10-040-CV) supplemented with 10% v/v FBS (GE Healthcare, Catalog #: SH30910.03) by splitting 1:3 twice a week.
(§6) Dispense 10 ul aliquot of prepared Hela-SMARCA2-HiBiT or Hela-SMARCA4-HiBiT cells (1:1 ratio of cells:Trypan Blue (#1450013, Bio-Rad)) onto cell counting slide (#145-0011, Bio-Rad) and obtain cell density and cell viability using cell counter (TC20, Bio-Rad). Remove appropriate volume of resuspended cells from culture flask to accommodate 2500 cells/well @ 20 μL/well. Transfer Hela-HiBiT cells to 50 mL conical (#430290, Corning). Spin down at 1000 rpm for 5 min using tabletop centrifuge (SPINCHRON 15, Beckman). Discard supernatant and resuspend cell pellet in modified EMEM (#30-2003, ATCC) cell culture media containing 10% FBS (F2422-500ML, Sigma), and 1X Penicillin/Streptomycin (200 g/L) (30-002-CI, Corning) to a cell density of 125,000 cells/mL. Dispense 20 μL of resuspended Hela-HiBit cells per well in 384-well TC treated plate (#12-565-343, Thermo Scientific) using standard cassette (#50950372, Thermo Scientific) on Multidrop Combi (#5840310, Thermo Scientific) inside laminar flow cabinet. Dispense test compounds onto plates using digital liquid dispenser (D300E, Tecan). Incubate plates in humidified tissue culture incubator @37° C. for 18 hours. Add 20 μL of prepared Nano-Glo® HiBiT Lytic detection buffer (N3050, Promega) to each well of 384-well plate using small tube cassette (#24073295, Thermo Scientific) on Multidrop Combi, incubate @ RT for 30-60 min. Read plates on microplate reader (Envision 2105, PerkinElmer) using 384 well Ultra-Sensitive luminescence mode. Raw data files and compound information reports are swept into centralized data lake and deconvoluted using automated scripts designed by TetraScience, Inc. Data analysis, curve-fitting and reporting done in Dotmatics Informatics Suite using Screening Ultra module.

The next test deals with T2, SMARCA2 (Homo sapiens, UniProt P51531).
T2 construct: SMARCA2-HiBiT knock-in Hela monoclonal cell (CS302366); host or cells: HeLa (CRISPR HiBiT knock-in monoclonal line, heterozygous)
T2 sequence (P51531 whole entry): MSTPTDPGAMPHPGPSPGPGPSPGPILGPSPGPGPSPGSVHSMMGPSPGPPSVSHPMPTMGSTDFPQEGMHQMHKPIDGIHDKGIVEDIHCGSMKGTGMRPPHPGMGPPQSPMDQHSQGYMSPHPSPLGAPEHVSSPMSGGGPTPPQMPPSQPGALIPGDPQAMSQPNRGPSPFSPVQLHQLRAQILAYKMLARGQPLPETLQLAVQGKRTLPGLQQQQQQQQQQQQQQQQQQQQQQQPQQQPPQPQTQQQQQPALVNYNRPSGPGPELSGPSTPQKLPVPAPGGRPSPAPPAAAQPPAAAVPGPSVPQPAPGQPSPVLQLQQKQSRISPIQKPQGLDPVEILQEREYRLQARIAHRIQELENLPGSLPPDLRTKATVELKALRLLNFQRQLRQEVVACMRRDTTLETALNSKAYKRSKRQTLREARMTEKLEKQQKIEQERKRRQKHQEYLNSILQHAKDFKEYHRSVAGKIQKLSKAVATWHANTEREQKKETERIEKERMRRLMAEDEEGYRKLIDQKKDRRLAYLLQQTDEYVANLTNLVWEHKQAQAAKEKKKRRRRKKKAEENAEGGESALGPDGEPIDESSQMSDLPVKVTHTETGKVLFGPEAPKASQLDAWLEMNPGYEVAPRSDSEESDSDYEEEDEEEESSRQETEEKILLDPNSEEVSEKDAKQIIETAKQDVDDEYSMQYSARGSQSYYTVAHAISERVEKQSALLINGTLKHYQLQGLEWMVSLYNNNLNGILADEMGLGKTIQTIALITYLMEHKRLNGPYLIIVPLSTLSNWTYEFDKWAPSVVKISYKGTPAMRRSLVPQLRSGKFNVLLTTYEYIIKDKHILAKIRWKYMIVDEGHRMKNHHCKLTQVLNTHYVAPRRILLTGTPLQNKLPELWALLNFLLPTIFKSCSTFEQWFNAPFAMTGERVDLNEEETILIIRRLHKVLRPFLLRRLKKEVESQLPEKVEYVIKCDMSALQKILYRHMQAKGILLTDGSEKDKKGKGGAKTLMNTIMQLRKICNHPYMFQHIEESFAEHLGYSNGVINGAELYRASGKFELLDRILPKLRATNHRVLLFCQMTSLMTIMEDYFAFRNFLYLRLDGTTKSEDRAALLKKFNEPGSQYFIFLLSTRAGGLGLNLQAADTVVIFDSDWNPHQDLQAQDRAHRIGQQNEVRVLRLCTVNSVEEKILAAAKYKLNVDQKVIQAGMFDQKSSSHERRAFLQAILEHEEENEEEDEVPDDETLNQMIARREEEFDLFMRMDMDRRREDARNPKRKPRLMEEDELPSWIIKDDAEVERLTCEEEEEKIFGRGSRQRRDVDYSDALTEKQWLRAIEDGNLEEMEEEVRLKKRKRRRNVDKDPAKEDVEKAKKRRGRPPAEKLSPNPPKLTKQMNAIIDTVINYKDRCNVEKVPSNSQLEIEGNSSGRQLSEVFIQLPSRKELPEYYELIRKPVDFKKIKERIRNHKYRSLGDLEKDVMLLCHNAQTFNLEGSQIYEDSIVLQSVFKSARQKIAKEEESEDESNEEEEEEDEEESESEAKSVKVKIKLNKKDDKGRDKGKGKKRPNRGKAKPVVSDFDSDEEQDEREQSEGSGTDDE
The test can be described thus: SMARCA2 HiBiT degradation assay in HeLa cells. The settings on record: 18 hours; for DC50: read-out: SMARCA2 IC50; for Dmax: HeLa. It counts as cell-based. As to the method: as §1, §2, §3, §4, §5, §6
Background: The HiBiT peptide binds its large partner to form an active luciferase.

Results on 19 compounds are retold here after patent publication US20230365576A1, “BRM Targeting Compounds And Associated Methods Of Use” (Prelude Therapeutics Incorporated, priority 2022, published 2023).

T1 sequence (P51532 whole entry): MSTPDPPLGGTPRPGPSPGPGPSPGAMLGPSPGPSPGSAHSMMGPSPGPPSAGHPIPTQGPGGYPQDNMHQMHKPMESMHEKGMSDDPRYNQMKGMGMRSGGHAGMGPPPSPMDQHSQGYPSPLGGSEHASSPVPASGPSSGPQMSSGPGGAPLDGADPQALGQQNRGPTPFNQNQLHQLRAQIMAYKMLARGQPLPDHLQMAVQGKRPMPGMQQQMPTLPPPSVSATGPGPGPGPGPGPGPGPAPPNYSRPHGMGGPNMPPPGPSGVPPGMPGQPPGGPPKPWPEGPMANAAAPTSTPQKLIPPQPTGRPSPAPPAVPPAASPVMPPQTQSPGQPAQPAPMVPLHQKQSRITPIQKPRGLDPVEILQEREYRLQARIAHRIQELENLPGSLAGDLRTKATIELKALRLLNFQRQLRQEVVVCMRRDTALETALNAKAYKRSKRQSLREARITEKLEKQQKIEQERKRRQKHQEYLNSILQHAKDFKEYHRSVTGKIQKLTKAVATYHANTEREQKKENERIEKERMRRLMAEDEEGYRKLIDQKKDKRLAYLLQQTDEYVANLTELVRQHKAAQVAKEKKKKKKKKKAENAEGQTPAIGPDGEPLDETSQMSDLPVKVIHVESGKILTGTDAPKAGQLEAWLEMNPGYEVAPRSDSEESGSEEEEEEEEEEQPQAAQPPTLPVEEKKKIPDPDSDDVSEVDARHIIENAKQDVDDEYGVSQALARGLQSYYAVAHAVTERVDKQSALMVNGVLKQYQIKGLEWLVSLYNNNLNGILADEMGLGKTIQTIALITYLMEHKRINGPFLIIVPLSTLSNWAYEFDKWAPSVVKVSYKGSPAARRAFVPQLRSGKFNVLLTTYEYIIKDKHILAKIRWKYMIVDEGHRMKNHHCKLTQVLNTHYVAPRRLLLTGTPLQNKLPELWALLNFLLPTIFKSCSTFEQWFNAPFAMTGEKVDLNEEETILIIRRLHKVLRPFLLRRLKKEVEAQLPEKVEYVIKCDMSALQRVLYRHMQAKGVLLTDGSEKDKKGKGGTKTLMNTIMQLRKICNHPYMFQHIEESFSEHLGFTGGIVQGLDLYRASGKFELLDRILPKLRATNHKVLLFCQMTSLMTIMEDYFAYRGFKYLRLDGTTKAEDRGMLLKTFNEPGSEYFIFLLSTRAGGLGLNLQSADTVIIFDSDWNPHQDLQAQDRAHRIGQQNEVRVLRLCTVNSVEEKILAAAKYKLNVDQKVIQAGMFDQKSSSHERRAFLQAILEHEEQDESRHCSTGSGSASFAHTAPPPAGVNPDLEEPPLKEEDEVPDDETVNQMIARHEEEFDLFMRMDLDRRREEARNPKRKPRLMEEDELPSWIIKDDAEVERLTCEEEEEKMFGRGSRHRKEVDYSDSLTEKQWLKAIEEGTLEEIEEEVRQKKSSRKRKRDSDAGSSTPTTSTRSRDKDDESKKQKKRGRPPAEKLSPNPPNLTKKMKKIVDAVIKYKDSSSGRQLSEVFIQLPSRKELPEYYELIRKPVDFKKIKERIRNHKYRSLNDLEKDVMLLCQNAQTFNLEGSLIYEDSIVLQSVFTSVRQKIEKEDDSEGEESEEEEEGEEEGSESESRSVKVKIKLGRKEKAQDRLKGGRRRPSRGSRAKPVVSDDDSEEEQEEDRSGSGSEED

Take `CC1(C)CN(CC2CCN(c3ccc4c(c3)C(=O)N(C3CCC(=O)NC3=O)C4)CC2)CCN1C(=O)N1CCN2c3cc(-c4cccc(F)c4O)nnc3NCC2(C)C1` (single isomer, unassigned) [Example 10, 3-(6-(4-((4-(2-(3-fluoro-2-hydroxyphenyl)-6a-methyl-6,6a,7,8,9,10-hexahydro-5H-pyrazino[1′,2′:4,5]pyrazino[2,3-c]pyridazine-8-carbonyl)-3,3-dimethylpiperazin-1-yl)methyl)piperidin-1-yl)-1-oxoisoindolin-2-yl)piperidine-2,6-dione]: at SMARCA4, the DC50 is less than 100 nM and the “SMARCA4 DMax %” value was “C (C=Dmax<50%)”. For the same compound, at SMARCA2, the “SMARCA2 DMax %” value is “A (A=Dmax>75%)” and the DC50 was less than 100 nM.

On to `C[C@@H]1CN(CC2CCN(c3ccc4c(c3)C(=O)N(C3CCC(=O)NC3=O)C4)CC2)C[C@H](C)N1C(=O)N1CCN2c3cc(-c4cccc(F)c4O)nnc3NCC2(C)C1` (single isomer, unassigned) [Example 11], for which, on SMARCA4, the DC50 was less than 100 nM and the “SMARCA4 DMax %” value is “B (B=50%<Dmax≤75%)”. Moreover, on SMARCA2, the DC50 was less than 100 nM and the Dmax – broadly, the largest share of the target that was removed – is greater than 75%.

Regarding `C[C@@H]1CN(CC2CCN(c3ccc4c(c3)C(=O)N(C3CCC(=O)NC3=O)C4)CC2)C[C@H](C)N1C(=O)N1CCN2c3cc(-c4cccc(F)c4O)nnc3NCC2(C)C1` (single isomer, unassigned) [Example 12], on SMARCA4, the DC50 was less than 100 nM and the “SMARCA4 DMax %” value is “A (A=Dmax>75%)”. Further, at SMARCA2, the “SMARCA2 DMax %” value is recorded as “A (A=Dmax>75%)” and the DC50 is less than 100 nM.

On SMARCA4, `C[C@@H]1CN(CC2CCN(c3ccc4c(c3)C(=O)N(C3CCC(=O)NC3=O)C4)CC2)C[C@@H](C)N1C(=O)N1CCN2c3cc(-c4cccc(F)c4O)nnc3NCC2(C)C1` (single isomer, unassigned) [Example 13] displayed a DC50 of less than 100 nM and a Dmax of less than 50%. At SMARCA2, the DC50 was less than 100 nM and the Dmax was greater than 75%.

On SMARCA4, `C[C@@H]1CN(CC2CCN(c3ccc4c(c3)C(=O)N(C3CCC(=O)NC3=O)C4)CC2)C[C@@H](C)N1C(=O)N1CCN2c3cc(-c4cccc(Cl)c4O)nnc3NCC2(C)C1` (single isomer, unassigned) [Example 14] gave a DC50 of less than 100 nM and a Dmax of 50 to 75%. Besides, at SMARCA2, the DC50 is less than 100 nM and the Dmax was greater than 75%.

On to `C[C@@H]1CN(CC2CCN(c3ccc4c(c3)C(=O)N(C3CCC(=O)NC3=O)C4)CC2)C[C@@H](C)N1C(=O)N1CCN2c3cc(-c4cc(F)cc(F)c4O)nnc3NCC2(C)C1` (single isomer, unassigned) [Example 28], for which the DC50 at SMARCA4 and on SMARCA2 was less than 100 nM throughout. Also, the values for the Dmax at SMARCA4 and on SMARCA2 were less than 50% and greater than 75%, respectively.

In the case of `C[C@@H]1CN(CC2CCN(c3ccc4c(c3)C(=O)N(C3CCC(=O)NC3=O)C4)CC2)C[C@H](C)N1C(=O)N1CCN2c3cc(-c4cc(F)cc(F)c4O)nnc3NCC2(C)C1` (single isomer, unassigned) [Example 34], on SMARCA4, the DC50 is less than 100 nM and the Dmax was greater than 75%. For the same compound, at SMARCA2, the DC50 is less than 100 nM and the Dmax was greater than 75%.

In the case of `O=C1CCC(N2Cc3ccc(N4CC[C@H](CN5C[C@@H]6[C@H](C5)[C@H]6CN5CCN6c7cc(-c8cc(F)cc(F)c8O)nnc7NC[C@H]6C5)[C@@H](F)C4)cc3C2=O)C(=O)N1` (single isomer, unassigned) [Example 37], the DC50 at SMARCA4 and at SMARCA2 was less than 100 nM each time. For the same compound, the Dmax on SMARCA2 is greater than 75%.

As to `C[C@H]1CN2c3cc(-c4cc(F)cc(F)c4O)nnc3NC[C@H]2CN1C[C@H]1[C@@H]2CN(C[C@H]3CCN(c4ccc5c(c4)C(=O)N(C4CCC(=O)NC4=O)C5)C[C@@H]3F)C[C@@H]21` (single isomer, unassigned) [Example 39], on SMARCA4, the DC50 was less than 100 nM and the Dmax was less than 50%. Moreover, at SMARCA2, the DC50 was less than 100 nM and the maximal degradation (Dmax) is greater than 75%.

On to `O=C1CCC(N2Cc3ccc(N4CCC(CN5C[C@@H]6[C@H](C5)[C@H]6CN5CCN6c7cc(-c8cc(F)cc(F)c8O)nnc7NC[C@H]6C5)C(F)(F)C4)cc3C2=O)C(=O)N1` (single isomer, unassigned) [Example 40], for which, at SMARCA4, the DC50 is less than 100 nM and the Dmax is 50 to 75%. Also, at SMARCA2, the “SMARCA2 DMax %” value was “B (B=50%<Dmax≤75%)” and the DC50 is less than 100 nM.

As to `O=C1CCC(N2Cc3ccc(N4CCC(CN5C[C@@H]6[C@H](C5)[C@H]6CN5CCN6c7cc(-c8cc(F)cc(F)c8O)nnc7NC[C@H]6C5)C(F)(F)C4)cc3C2=O)C(=O)N1` (single isomer, unassigned) [Example 41], on SMARCA4, the DC50 is less than 100 nM and the “SMARCA4 DMax %” value is “B (B=50%<Dmax≤75%)”. On SMARCA2, the “SMARCA2 DMax %” value is recorded as “A (A=Dmax>75%)” and the DC50 was less than 100 nM.

Turning to `C[C@@H]1CN(C[C@H]2CCN(c3ccc4c(c3)C(=O)N(C3CCC(=O)NC3=O)C4)C[C@@H]2F)C[C@H](C)N1C(=O)N1CCN2c3cc(-c4cccc(F)c4O)nnc3NC[C@H]2C1` (single isomer, unassigned) [Example 44], the DC50 on SMARCA4 and on SMARCA2 was less than 100 nM throughout. The greatest degradation seen (Dmax) at SMARCA4 is less than 50%; on SMARCA2, greater than 75%.

In the case of `CCC12CNc3nnc(-c4cc(F)cc(F)c4O)cc3N1CCN(C(=O)N1[C@H](C)CN(CC3CCN(c4ccc5c(c4)C(=O)N(C4CCC(=O)NC4=O)C5)CC3)C[C@@H]1C)C2` (single isomer, unassigned) [Example 59], the DC50 on SMARCA4 and at SMARCA2 was less than 100 nM in each case. Moreover, the Dmax at SMARCA4 and on SMARCA2 was greater than 75% each time.

Regarding `CCC12CNc3nnc(-c4cccc(F)c4O)cc3N1CCN(C(=O)N1[C@H](C)CN(CC3CCN(c4ccc5c(c4)C(=O)N(C4CCC(=O)NC4=O)C5)CC3)C[C@@H]1C)C2` (single isomer, unassigned) [Example 60], at SMARCA4, the DC50 was less than 100 nM and the maximal degradation (Dmax) was greater than 75%. In addition, at SMARCA2, the DC50 is less than 100 nM and the Dmax is greater than 75%.

As to `CCC12CNc3nnc(-c4cc(F)cc(F)c4O)cc3N1CCN(C(=O)N1[C@H](C)CN(CC3CCN(c4ccc5c(c4)C(=O)N(C4CCC(=O)NC4=O)C5)CC3)C[C@@H]1C)C2` (single isomer, unassigned) [Example 61], the DC50 on SMARCA4 and at SMARCA2 was less than 100 nM throughout.

Take `CCC12CNc3nnc(-c4cccc(F)c4O)cc3N1CCN(C(=O)N1[C@H](C)CN(CC3CCN(c4ccc5c(c4)C(=O)N(C4CCC(=O)NC4=O)C5)CC3)C[C@@H]1C)C2` (single isomer, unassigned) [Example 62]: at SMARCA4, the DC50 is less than 100 nM and the “SMARCA4 DMax %” value is “A (A=Dmax>75%)”. At SMARCA2, the “SMARCA2 DMax %” value is on record as “A (A=Dmax>75%)” and the DC50 was less than 100 nM.

As to `C[C@@H]1CN(CC2CCN(c3ccc4c(c3)C(=O)N(C3CCC(=O)NC3=O)C4)CC2)C[C@@H](C)N1C(=O)N1CCN2c3cc(-c4cccc(Cl)c4O)nnc3NCC2(C)C1` (single isomer, unassigned) [Example 63], the DC50 at SMARCA4 and at SMARCA2 was less than 100 nM in each case.

With `C[C@@H]1CN(CC2CCN(c3ccc4c(c3)C(=O)N(C3CCC(=O)NC3=O)C4)CC2)C[C@H](C)N1C(=O)N1CCN2c3cc(-c4cc(F)cc(F)c4O)nnc3NCC2(C)C1` (single isomer, unassigned) [Example 64], the DC50 at SMARCA4 and on SMARCA2 was less than 100 nM each time.

As for `CCC12CNc3nnc(-c4cccc(F)c4O)cc3N1CCN(C(=O)N1CCN(CC3CCN(c4ccc5c(c4)C(=O)N([C@H]4CCC(=O)NC4=O)C5)CC3)CC1(C)C)C2` (single isomer, unassigned) [Example 74], at SMARCA4, the DC50 is less than 100 nM and the Dmax lay in the range of 50 to 75%. For the same compound, at SMARCA2, the DC50 is less than 100 nM and the Dmax is greater than 75%.
